The values below come from patent US6410558B1, “Fungicides for the control of take-all disease of plants” (Monsanto Technology LLC, priority 1991, dated 2002).

The assay relates to Gaeumannomyces graminis var. tritici (Ggt). In words: In vitro Assay: mycelial growth of Ggt on minimal media agar plates containing test compound. The following applies: dark, 19-20° C., 4 to 5 days, diameter of mycelial growth; for inhibition at 0.1 ppm / inhibition at 1 ppm / inhibition at 10 ppm: Gaeumannomyces graminis; for inhibition at 0.1 ppm: read-out: In vitro (ppm) 0.1, Percent Inhibition; for inhibition at 1 ppm: read-out: In vitro (ppm) 1, Percent Inhibition; for inhibition at 10 ppm: read-out: In vitro (ppm) 10, Percent Inhibition. The format is cell-based. Here is the method: The test compounds (0.25 mL of an appropriate stock solution in acetone) are incorporated into 25 mL minimal media agar [(prepared by autoclaving a solution of 17.5 g Czapek Dox broth (Difco), 7.5 g purified agar or Bacto-agar (Difco), and 500 mL distilled/deionized water, and then adding 50 μL of 1 mg/mL thiamine hydrochloride and 50 μL of 1 mg/mL biotin in 5% ethanol] and plates are prepared.
Each plate is inoculated by placing in a triangular shape three 4-mm plugs of Gaeumannomyces graminis var. tritici (Ggt) grown on the minimal media agar described above. The plates are incubated in the dark at 19-20° C. for 4 to 5 days. The growth of the fungus is measured as the diameter of the mycelial growth. The result is expressed as Percent Inhibition, calculated as [1-[(mm growth on treated plate −4)/(mm growth on control plate −4)]]×100.

As for `CCNC(=O)c1c([Si](C)(C)C)ccc(C(=O)OC)c1Cl` [Example 244, 2-Chloro-3-[(ethylamino)carbonyl]-4-(trimethylsilyl)benzoic acid, methyl ester], where the note is “0.1 ppm in minimal media agar”, the inhibition at 0.1 ppm came to 10%. Besides, the inhibition at 1 ppm (1 ppm in minimal media agar) is 20%. Also, the inhibition at 10 ppm (10 ppm in minimal media agar) was determined as 53%.

For `CCNC(=O)c1c(F)cccc1S(=O)(=O)C(C)(C)C` [Example 280, 2-[(1,1-Dimethylethyl)sulfonyl]-N-ethyl-6-fluorobenzamide], the inhibition at 0.1 ppm (0.1 ppm in minimal media agar) was 24%. For the same compound, the inhibition at 1 ppm (1 ppm in minimal media agar) was found to be 21%. Moreover, the inhibition at 10 ppm (10 ppm in minimal media agar) worked out at 38%.

As to `C[Si](C)(C)c1cccc(Cl)c1C(=O)NC1CCCCC1` [Example 129, 2-Chloro-N-cyclohexyl-6-(trimethylsilyl)benzamide], the inhibition at 0.1 ppm (0.1 ppm in minimal media agar) turned out to be 9%. Moreover, the inhibition at 1 ppm (1 ppm in minimal media agar) is 35%. The inhibition at 10 ppm (10 ppm in minimal media agar) stood at 26%.

As for `CCN(CC)C(=O)c1c([Si](C)(C)C)ccc([Si](C)(C)C)c1Cl` [Example 86, N,N-Diethyl-2-chloro-3,6-bis(trimethylsilyl)benzamide], the inhibition at 0.1 ppm (0.1 ppm in minimal media agar) was below 0%. Besides, the inhibition at 1 ppm (1 ppm in minimal media agar) came to 24%. Besides, the inhibition at 10 ppm (10 ppm in minimal media agar) was determined as 72%.

For the compound `CCN(CC)C(=S)c1ccc(C)c(F)c1[Si](C)(C)C` [Example 75, N,N-Diethyl-3-fluoro-4-methyl-2-(trimethylsilyl)thiobenzamide], the inhibition at 0.1 ppm (0.1 ppm in minimal media agar) worked out at 5%. In addition, under “1 ppm in minimal media agar”, the inhibition at 1 ppm was found to be 26%. Also, the inhibition at 10 ppm (10 ppm in minimal media agar) came out at 31%.

As for `COc1ccc(CNC(=O)c2c(Cl)cccc2[Si](C)(C)C)cc1` [Example 136, 2-Chloro-N-[(4-methoxyphenyl)methyl]-6-(trimethylsilyl)benzamide], the inhibition at 0.1 ppm (0.1 ppm in minimal media agar) was determined as 3%. Where the note is “1 ppm in minimal media agar”, the inhibition at 1 ppm was determined as 26%. Further, for the setting “10 ppm in minimal media agar”, the inhibition at 10 ppm was 100%.

Turning to `CCNC(=O)c1c([Si](C)(C)C)ccc(-c2ccccc2)c1Cl` [Example 242, 2-Chloro-N-ethyl-3-phenyl-6-(trimethylsilyl)benzamide], where the note is “0.1 ppm in minimal media agar”, the inhibition at 0.1 ppm worked out at 27%. Also, where the note is “1 ppm in minimal media agar”, the inhibition at 1 ppm was below 0%. Under “10 ppm in minimal media agar”, the inhibition at 10 ppm came out at 67%.

With `CCN(CO)C(=O)c1c(C)cccc1[Si](C)(C)C` [Example 143, N-Ethyl-N-(hydroxymethyl)-2-methyl-6-(trimethylsilyl)benzamide], the inhibition at 0.1 ppm (0.1 ppm in minimal media agar) came to 5%. Further, under “1 ppm in minimal media agar”, the inhibition at 1 ppm came to 13%. In addition, under “10 ppm in minimal media agar”, the inhibition at 10 ppm was determined as 74%.

Turning to `CCN(CC=CC#CC(C)(C)C)C(=O)c1c(Cl)cccc1[Si](C)(C)C` [Example 104, 2-Chloro-N-(6,6-dimethyl-2-hepten-4-ynyl)-N-ethyl-6-(trimethylsilyl)benzamide], under “0.1 ppm in minimal media agar”, the inhibition at 0.1 ppm was below 0%. In addition, the inhibition at 1 ppm (1 ppm in minimal media agar) worked out at 26%. In addition, the inhibition at 10 ppm (10 ppm in minimal media agar) is 71%.

Consider `CCNC(=O)c1cc(NC)ccc1[Si](C)(C)C` [Example 275, N-Ethyl-5-(methylamino)-2-(trimethylsilyl)benzamide], for which the inhibition at 0.1 ppm (0.1 ppm in minimal media agar) turned out to be 22%. In addition, the inhibition at 1 ppm (1 ppm in minimal media agar) was determined as 81%. For the same compound, the inhibition at 10 ppm (10 ppm in minimal media agar) turned out to be 94%.

Consider `Cc1ccccc1NC(=O)c1c(Br)cccc1[Si](C)(C)C` [Example 120, 2-Bromo-N-(2-methylphenyl)-6-(trimethylsilyl)benzamide], for which the inhibition at 0.1 ppm (0.1 ppm in minimal media agar) is below 0%. Besides, for the setting “1 ppm in minimal media agar”, the inhibition at 1 ppm stood at 26%. The inhibition at 10 ppm (10 ppm in minimal media agar) stood at 100%.

Turning to `C#CCNC(=O)c1c(Cl)cccc1[Si](C)(C)C` [Example 108, 2-Chloro-N-(2-propynyl)-6-(trimethylsilyl)benzamide], for the setting “0.1 ppm in minimal media agar”, the inhibition at 0.1 ppm was determined as 90%. The inhibition at 1 ppm (1 ppm in minimal media agar) was determined as 86%. The inhibition at 10 ppm (10 ppm in minimal media agar) was 97%.

As for `CCN(CC)C(=O)c1c(Cl)cc(C)cc1[Si](C)(C)C` [Example 59, N,N-Diethyl-2-chloro-4-methyl-6-(trimethylsilyl)benzamide], the inhibition at 0.1 ppm (0.1 ppm in minimal media agar) came to 6%. Also, under “1 ppm in minimal media agar”, the inhibition at 1 ppm is below 0%. Also, for the setting “10 ppm in minimal media agar”, the inhibition at 10 ppm came out at 26%.

As for `CCNC(=O)c1c(Br)cccc1[Si](C)(C)C` [Example 176, 2-Bromo-N-ethyl-6-(trimethylsilyl)benzamide], the inhibition at 0.1 ppm (0.1 ppm in minimal media agar) was determined as 83%. For the same compound, the inhibition at 1 ppm (1 ppm in minimal media agar) is 97%. Moreover, the inhibition at 10 ppm (10 ppm in minimal media agar) is 97%.

On to `CCCCCCC(C)N(CC)C(=O)c1c(Cl)cccc1[Si](C)(C)C` (stereo not drawn) [Example 96, 2-Chloro-N-ethyl-N-(1-methylheptyl)-6-(trimethylsilyl)benzamide], for which the inhibition at 0.1 ppm (0.1 ppm in minimal media agar) turned out to be 7%. For the same compound, the inhibition at 1 ppm (1 ppm in minimal media agar) was found to be 15%. Also, for the setting “10 ppm in minimal media agar”, the inhibition at 10 ppm turned out to be 48%.

As for `CCN=C(SCC)c1c(Cl)cccc1[Si](C)(C)C` [Example 169, 2-Chloro-N-ethyl-6-(trimethylsilyl)benzenecarboximidothioic acid, ethyl ester], the inhibition at 0.1 ppm (0.1 ppm in minimal media agar) is below 0%. Moreover, the inhibition at 1 ppm (1 ppm in minimal media agar) is 31%. For the same compound, the inhibition at 10 ppm (10 ppm in minimal media agar) is 100%.

For the compound `CCNC(=O)c1c(Cl)cc(C=O)cc1[Si](C)(C)C` [Example 193, 2-Chloro-N-ethyl-4-formyl-6-(trimethylsilyl)benzamide], for the setting “0.1 ppm in minimal media agar”, the inhibition at 0.1 ppm stood at 35%. Also, under “1 ppm in minimal media agar”, the inhibition at 1 ppm came to 30%. For the setting “10 ppm in minimal media agar”, the inhibition at 10 ppm is 57%.

Regarding `CN(CC=Cc1ccccc1)C(=O)c1c(Cl)cccc1[Si](C)(C)C` [Example 105, 2-Chloro-N-methyl-N-(3-phenyl-2-propenyl)-6-(trimethylsilyl)benzamide], the inhibition at 0.1 ppm (0.1 ppm in minimal media agar) is 3%. The inhibition at 1 ppm (1 ppm in minimal media agar) amounted to 37%. For the same compound, the inhibition at 10 ppm (10 ppm in minimal media agar) was determined as 84%.

With `C[Si](C)(C)c1cccc(Cl)c1C(=O)NCc1ccc2c(c1)OCO2` [Example 144, N-(1,3-benzodioxol-5-ylmethyl)-2-chloro-6-(trimethylsilyl)benzamide], the inhibition at 0.1 ppm (0.1 ppm in minimal media agar) is below 0%. Moreover, the inhibition at 1 ppm (1 ppm in minimal media agar) stood at 11%. Besides, where the note is “10 ppm in minimal media agar”, the inhibition at 10 ppm stood at 59%.

On to “3-N,N-diethyl-2-(trimethylsilyl)benzamide [Example 15]”, for which the “In vitro (ppm) 0.1, Percent Inhibition” value (0.1 ppm in minimal media agar) is recorded as “N (If the calculation resulted in “0” or less, as compared to the untreated control, a “N” is shown to indicate no control.)”. Besides, the “In vitro (ppm) 1, Percent Inhibition” value (1 ppm in minimal media agar) was “N (If the calculation resulted in “0” or less, as compared to the untreated control, a “N” is shown to indicate no control.)”. The “In vitro (ppm) 10, Percent Inhibition” value (10 ppm in minimal media agar) was 44%.

Turning to `CCOC(=O)Nc1c(Cl)cccc1[Si](C)(C)C` [Example 109, [2-Chloro-6-(trimethylsilyl)phenyl]carbamic acid, ethyl ester], under “0.1 ppm in minimal media agar”, the inhibition at 0.1 ppm came to 10%. The inhibition at 1 ppm (1 ppm in minimal media agar) was 10%. In addition, the inhibition at 10 ppm (10 ppm in minimal media agar) was found to be 83%.

Turning to `C[Si](C)(C)c1cccc(I)c1C(=O)NC1CC1` [Example 209, N-Cyclopropyl-2-iodo-6-(trimethylsilyl)benzamide], the inhibition at 0.1 ppm (0.1 ppm in minimal media agar) came to 28%. In addition, the inhibition at 1 ppm (1 ppm in minimal media agar) is 90%. Moreover, the inhibition at 10 ppm (10 ppm in minimal media agar) is 100%.

On to `CCNC(=O)c1c(Cl)cccc1N(C)C(C)(C)C` [Example 190, 2-Chloro-6-[(1,1-dimethylethyl)methylamino]-N-ethylbenzamide], for which, where the note is “0.1 ppm in minimal media agar”, the inhibition at 0.1 ppm is 24%. For the same compound, the inhibition at 1 ppm (1 ppm in minimal media agar) was determined as 76%. In addition, the inhibition at 10 ppm (10 ppm in minimal media agar) was 80%.

In the case of `CCNC(=O)c1cc(NC(=O)c2ccccc2)ccc1[Si](C)(C)C` [Example 240, 5-(Benzoylamino)-N-ethyl-2-(trimethylsilyl)benzamide], under “0.1 ppm in minimal media agar”, the inhibition at 0.1 ppm came to 26%. The inhibition at 1 ppm (1 ppm in minimal media agar) worked out at 22%. Besides, the inhibition at 10 ppm (10 ppm in minimal media agar) stood at 65%.

Regarding `CN(C(=O)c1c(Cl)cccc1[Si](C)(C)C)C(C)(C)C` [Example 23, 2-Chloro-N-(1,1-dimethylethyl)-N-methyl-6-(trimethylsilyl)benzamide], the inhibition at 0.1 ppm (0.1 ppm in minimal media agar) is below 0%. In addition, where the note is “1 ppm in minimal media agar”, the inhibition at 1 ppm was below 0%. Moreover, for the setting “10 ppm in minimal media agar”, the inhibition at 10 ppm was found to be 71%.

`CCNC(=O)c1c(-c2ccccc2)cccc1[Si](C)(C)C` [Example 221, N-Ethyl-2-phenyl-6-(trimethylsilyl)benzamide]: the inhibition at 0.1 ppm (0.1 ppm in minimal media agar) was determined as 15%. Besides, under “1 ppm in minimal media agar”, the inhibition at 1 ppm came to 46%. Moreover, the inhibition at 10 ppm (10 ppm in minimal media agar) was determined as 85%.

With `CCNC(=O)c1cc(N(C)C)ccc1[Si](C)(C)C` [Example 226, 5-(Dimethylamino)-N-ethyl-2-(trimethylsilyl)benzamide], the inhibition at 0.1 ppm (0.1 ppm in minimal media agar) was determined as 32%. Besides, the inhibition at 1 ppm (1 ppm in minimal media agar) was 91%. Also, the inhibition at 10 ppm (10 ppm in minimal media agar) is 100%.

In the case of `CC(C)N(C(=O)c1c(Cl)cccc1[Si](C)(C)C)C(C)C` [Example 126, 2-Chloro-N,N-bis(1-methylethyl)-6-(trimethylsilyl)benzamide], under “0.1 ppm in minimal media agar”, the inhibition at 0.1 ppm is 15%. Further, where the note is “1 ppm in minimal media agar”, the inhibition at 1 ppm was found to be 4%. Besides, for the setting “10 ppm in minimal media agar”, the inhibition at 10 ppm stood at 93%.

As for `C[Si](C)(C)c1cccc(Cl)c1C(=O)NCc1cccc([N+](=O)[O-])c1` [Example 141, 2-Chloro-N-[(3-nitrophenyl)-methyl]-6-(trimethylsilyl)-benzamide], under “0.1 ppm in minimal media agar”, the inhibition at 0.1 ppm turned out to be 19%. Also, for the setting “1 ppm in minimal media agar”, the inhibition at 1 ppm was found to be 64%. The inhibition at 10 ppm (10 ppm in minimal media agar) stood at 100%.
